Measurements published in ChEMBL document CHEMBL4177568 (Bioorg Med Chem Lett, 2017).
Calls of active or inactive are those of the source. The calls are words filed in the database; no cut-off is given here.

Assays:
[1] = molecular target: T1, Neuronal acetylcholine receptor; alpha4/beta2 (Homo sapiens) (UniProt P17787+P43681); assay: Agonist activity at alpha4beta2 nAChR (unknown origin) expressed in Xenopus laevis oocytes assessed as increase in peak current at 30 uM at -60 mV holding potential by electrophysiology method; type: cell-based
[2] = molecular target: Neuronal acetylcholine receptor subunit alpha-7 (Homo sapiens) (UniProt P36544); assay: Agonist activity at alpha7 nAChR (unknown origin) expressed in Xenopus laevis oocytes assessed as increase in peak current at 60 uM at -60 mV holding potential by electrophysiology method; type: cell-based
[3] = molecular target: T2, Neuronal acetylcholine receptor; alpha3/beta4 (Homo sapiens, UniProt P30926+P32297); assay: Antagonist activity at human alpha3beta4 nAChR expressed in Xenopus laevis oocytes assessed as reduction in acetylcholine-induced peak current at -60 mV holding potential by electrophysiology method; type: cell-based
[4] = molecular target: T1, Neuronal acetylcholine receptor; alpha4/beta2 (Homo sapiens); assay: Antagonist activity at alpha4beta2 nAChR (unknown origin) expressed in Xenopus laevis oocytes assessed as reduction in acetylcholine-induced peak current at 30 uM at -60 mV holding potential by electrophysiology method; type: cell-based
[5] = molecular target: T2, Neuronal acetylcholine receptor; alpha3/beta4; assay: Antagonist activity at human alpha3beta4 nAChR expressed in Xenopus laevis oocytes assessed as reduction in acetylcholine-induced peak current at 100 uM at -60 mV holding potential by electrophysiology method; type: cell-based
[6] = molecular target: Neuronal acetylcholine receptor subunit alpha-7 (Homo sapiens) (UniProt P36544); assay: Antagonist activity at alpha7 nAChR (unknown origin) expressed in Xenopus laevis oocytes assessed as reduction in acetylcholine-induced peak current at 60 uM at -60 mV holding potential by electrophysiology method; type: cell-based
[7] = molecular target: T2, Neuronal acetylcholine receptor; alpha3/beta4; assay: Agonist activity at human alpha3beta4 nAChR expressed in Xenopus laevis oocytes assessed as increase in peak current at 100 uM at -60 mV holding potential by electrophysiology method; type: cell-based
[8] = molecular target: Neuronal acetylcholine receptor; assay: Binding affinity to nAChR in rat brain membranes; type: cell membranes, Membrane

T2 sequence (P30926 whole entry): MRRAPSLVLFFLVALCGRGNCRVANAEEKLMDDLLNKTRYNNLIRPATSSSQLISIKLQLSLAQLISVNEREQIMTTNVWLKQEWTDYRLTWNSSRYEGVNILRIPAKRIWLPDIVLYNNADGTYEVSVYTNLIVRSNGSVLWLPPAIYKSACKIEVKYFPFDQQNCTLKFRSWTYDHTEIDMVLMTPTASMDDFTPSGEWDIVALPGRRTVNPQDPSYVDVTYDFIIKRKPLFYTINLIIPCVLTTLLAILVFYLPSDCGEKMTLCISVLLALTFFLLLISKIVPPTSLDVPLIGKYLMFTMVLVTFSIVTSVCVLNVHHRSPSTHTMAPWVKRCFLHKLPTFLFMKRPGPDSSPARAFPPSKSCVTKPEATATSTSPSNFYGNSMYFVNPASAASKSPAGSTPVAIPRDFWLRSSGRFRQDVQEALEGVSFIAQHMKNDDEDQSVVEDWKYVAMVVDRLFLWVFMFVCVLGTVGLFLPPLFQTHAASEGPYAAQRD
T2 sequence (P32297 whole entry): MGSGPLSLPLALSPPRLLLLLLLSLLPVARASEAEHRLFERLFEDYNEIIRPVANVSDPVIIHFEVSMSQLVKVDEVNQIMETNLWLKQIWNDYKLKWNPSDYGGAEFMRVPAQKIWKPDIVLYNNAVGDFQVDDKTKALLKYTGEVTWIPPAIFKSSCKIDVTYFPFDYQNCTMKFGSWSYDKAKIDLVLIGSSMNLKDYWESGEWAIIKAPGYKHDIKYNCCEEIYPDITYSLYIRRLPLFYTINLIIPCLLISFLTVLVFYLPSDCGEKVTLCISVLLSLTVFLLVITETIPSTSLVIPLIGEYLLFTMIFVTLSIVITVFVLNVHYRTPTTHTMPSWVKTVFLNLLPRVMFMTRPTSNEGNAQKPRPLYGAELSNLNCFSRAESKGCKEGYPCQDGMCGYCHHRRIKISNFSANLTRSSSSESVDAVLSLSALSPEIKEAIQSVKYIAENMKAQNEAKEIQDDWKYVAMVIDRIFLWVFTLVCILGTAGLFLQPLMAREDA
Chain of Neuronal acetylcholine receptor subunit alpha-7 (Homo sapiens) (P36544 whole entry): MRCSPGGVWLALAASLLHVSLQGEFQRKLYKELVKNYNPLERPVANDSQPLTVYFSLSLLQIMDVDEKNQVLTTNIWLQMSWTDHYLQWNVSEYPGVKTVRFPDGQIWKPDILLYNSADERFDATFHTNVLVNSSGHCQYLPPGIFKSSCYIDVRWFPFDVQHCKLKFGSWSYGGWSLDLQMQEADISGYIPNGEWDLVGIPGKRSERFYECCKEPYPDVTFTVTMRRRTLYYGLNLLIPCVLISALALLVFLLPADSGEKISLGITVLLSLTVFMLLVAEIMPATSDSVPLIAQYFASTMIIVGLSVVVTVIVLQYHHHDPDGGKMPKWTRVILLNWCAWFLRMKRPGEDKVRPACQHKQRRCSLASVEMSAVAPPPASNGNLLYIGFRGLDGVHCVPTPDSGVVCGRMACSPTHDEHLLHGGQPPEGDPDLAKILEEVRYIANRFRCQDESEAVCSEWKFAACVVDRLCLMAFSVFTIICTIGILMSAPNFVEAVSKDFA

SMILES | Activity [1] | Activity [2] | IC50 [3] | Ki [3] | inhibition [4] | inhibition [5] | inhibition [6] | Activity [7] | Kd [8]
CN1CCC=C(c2cnc(F)c(-c3ccccc3)c2)C1 | inactive | inactive | 20 µM | 0.123 µM | inactive | Active | inactive | inactive | –
CN1CCC=C(c2ccc(Cl)nc2)C1 | – | – | – | – | – | – | – | – | 0.0022 µM
